The numbers were not newly measured in PMC9881854 (bioRxiv, 2023), which cites them from elsewhere.

The data set has as its system mTOR.

Each structure is given as a SMILES string.

On to `CO[C@H]1C[C@@H]2CC[C@@H](C)[C@@](O)(O2)C(=O)C(=O)N2CCCC[C@H]2C(=O)O[C@H]([C@H](C)C[C@@H]2CC[C@@H](O)[C@H](OC)C2)CC(=O)[C@H](C)/C=C(\C)[C@@H](O)[C@@H](OC)C(=O)[C@H](C)C[C@H](C)/C=C/C=C/C=C/1C` [rapamycin], for which the “binding of rapamycin by itself to mTOR” value was “weak micromolar binder”.
